Laboratory results from patent US4026888A, “Certain derivatives of particular 3-thiolated cephalosporins” (priority 1976, dated 1977).
In brackets after ≈: the same amount, converted by molar mass. Read-outs that look alike come from different tables or passages of the source.

Tests used:
Str. pneumoniae A9585 = assay: Antibiotic activity in nutrient broth (MIC); assay type: cell-based; details: Streptococcus pneumoniae, A9585, inoculum 10^-3 dilution of overnight broth culture; 45% AAB + 5% serum + 50% broth; derivatives adjusted for BL-S640 content
Description: (§1) Antibiotic Activity In Nutrient Broth
(§2) * 45% AAB+ 5% serum+ 50% broth listed above.
(§3) ** Dilution of overnight broth culture.
(§4) Antibiotic Spectrum Nutrient Broth
(§5) * 45% AAB + 5% serum + 50% broth
(§6) Antibiotic Spectrum in Nutrient Broth
(§7) *45% AAB + 5% serum + 50% broth listed above.

Str. pyogenes A9604 = assay: Antibiotic activity in nutrient broth (MIC); assay type: cell-based; details: Streptococcus pyogenes, A9604, inoculum 10^-3; 45% AAB + 5% serum + 50% broth; derivatives adjusted for BL-S640 content; read-out: MIC
Description: as §1, §2, §3, §4, §5, §6, §7

Ent. cloacae A9656 = assay: Antibiotic activity in nutrient broth (MIC); assay type: cell-based; details: Enterobacter cloacae, A9656, inoculum 10^-4; derivatives adjusted for BL-S640 content
Description: as §1, §3, §4, §6

Ent. cloacae A9657 = assay: Antibiotic activity in nutrient broth (MIC); assay type: cell-based; details: Enterobacter cloacae, A9657, inoculum 10^-4; derivatives adjusted for BL-S640 content; read-out: MIC
Description: as §1, §3, §4, §6

K. pneumoniae A15130 = assay: Antibiotic activity in nutrient broth (MIC); assay type: cell-based; details: Klebsiella pneumoniae, A15130, inoculum 10^-4; derivatives adjusted for BL-S640 content; read-out: MIC
Description: as §1, §3, §4, §6

K. pneumoniae A9977 = assay: Antibiotic activity in nutrient broth (MIC); assay type: cell-based; details: Klebsiella pneumoniae, inoculum 10^-4, derivatives adjusted for BL-S640 content, read-out: MIC
Description: as §1, §3, §4, §6

Pr. mirabilis A9900 = assay: Antibiotic activity in nutrient broth (MIC); assay type: cell-based; details: Proteus mirabilis, inoculum 10^-4, derivatives adjusted for BL-S640 content
Description: as §1, §3, §4, §6

Pr. morganii A15153 = assay: Antibiotic activity in nutrient broth (MIC); assay type: cell-based; details: Morganella morganii, A15153, inoculum 10^-4; derivatives adjusted for BL-S640 content; read-out: MIC
Description: as §1, §3, §4, §6

S. aureus Smith A9537 = assay: Antibiotic activity in nutrient broth (MIC); assay type: cell-based; details: derivatives adjusted for BL-S640 content
Description: as §1, §3, §4, §6

Sal. enteritidis A9531 = assay: Antibiotic activity in nutrient broth (MIC); assay type: cell-based; details: Salmonella enterica, ENTERITIDIS, inoculum 10^-4; derivatives adjusted for BL-S640 content; read-out: MIC
Description: as §1, §3, §4, §6

Ser. marcescens A20019 = assay: Antibiotic activity in nutrient broth (MIC); assay type: cell-based; details: derivatives adjusted for BL-S640 content
Description: as §1, §3, §4, §6

[1] = Mouse blood levels after oral administration; assay type: in vivo; details: for Blood Level: listed as Compound of Ex. 1, 100 mg/kg; for concentration at 0.5 h / concentration at 1 h / concentration at 2 h / concentration at 3.5 h: mouse, blood, po, 100 mg/kg
Experimental: Mouse Blood Levels After Oral
Administration Of 100 mg./kg. Body Weight
The compounds were prepared in
Tween - carboxymethylcellulose
and 8 mice were used for each
Mouse Blood Levels After PO
Administration of 100 mg./kg. Body Weight
The compounds were prepared in Tween-CMC. BL-S640
The compounds were prepared in Tween-CMC. Values are the average of two

[2] = Mouse blood levels after intramuscular administration; assay type: in vivo; details: for concentration at 0.25 h / concentration at 0.5 h / concentration at 1 h / concentration at 1.5 h: mouse, blood, im, 10 mg/kg, IM 10 mg./kg., 0.01% phosphate buffer
Experimental: Mouse Blood Levels After Intramuscular Administration
of 10 mg./kg. Body Weight
The compounds were dissolved in 0.01% phosphate buffer.
Mouse Blood Levels After IM
Administration of 10 mg./kg. Body Weight
The compounds were prepared in 0.01% phosphate
(§8) The compounds were prepared in 0.01% phosphate buffer.

[3] = Urinary recovery after IM administration to rats; assay type: in vivo; details: rat, urine, read-out: Urinary Recovery, Percentage of Administered Dose Recovered; for dose excreted at 6 h: 0-6 hr
Experimental: Urinary Recovery After IM
Administration of 50 and 10 mg./kg. to Rats
The compounds were prepared in 0.01% phosphate buffer. BL-S640 was used as
Urinary Recovery after IM
Administration of 50 mg./kg. to Rats
as §8

[4] = Paper chromatography of rat urine for antibiotically active metabolites; assay type: in vivo; details: IM; rat urine 0-2 and 2-4 hours
Experimental: Paper chromatograms were run on rat urine collected between 0 and 2 and between 2 and 4 hours following IM administration of BL-S1055 and 640, for the detection of antibiotically active metabolites using descending chromatography with system No. 9 (butyl acetate:n-butanol:glacial acetic acid:H2 O= 80:15:40:24).

P. mirabilis A9707 = assay: Oral PD50 in mice; assay type: in vivo; details: Proteus mirabilis, mice treated at 1 and 3.5 hours post-challenge
Experimental: Comparative Oral PD50 Values of
(§9) BL-S640 Derivatives in Mice
*Mice were treated at 1 and 3.5 hours post-challenge.

P. mirabilis A9900 [5] = assay: Oral PD50 in mice; assay type: in vivo; details: Proteus mirabilis, A9900, po, 3.5 h, oral; mice treated at 1 and 3.5 hours post-challenge; read-out: PD50
P. mirabilis A9900 [6] = assay: IM PD50 in mice; assay type: in vivo; details: Proteus mirabilis
Description: Comparative IM PD50 Values of
as §9

[7] = Example 2, 16 or 32 mice, read-out: Blood Levels
[8] = Table III, read-out: Mouse Blood Levels

O=C(O)C1=C(CSc2cnn[nH]2)CS[C@@H]2[C@H](N3C(=O)[C@@H](c4ccc(O)cc4)NC3c3ccc(S(=O)(=O)O)o3)C(=O)N12 (stereo partly drawn) [BL-S1027]
MIC (Str. pneumoniae A9585): 0.03 µg/mL | MIC (Str. pyogenes A9604): 0.03 µg/mL | MIC (Ent. cloacae A9656): > 125 µg/mL | MIC (Ent. cloacae A9657): 1 µg/mL (≈ 1.61 µM) | MIC (K. pneumoniae A15130): 1 µg/mL (≈ 1.61 µM) | MIC (K. pneumoniae A9977): 0.5 µg/mL (≈ 0.806 µM) | MIC (Pr. mirabilis A9900): 0.5 µg/mL (≈ 0.806 µM) | MIC (Pr. morganii A15153): 32 µg/mL (≈ 51.6 µM) | MIC (S. aureus Smith A9537; Staphylococcus aureus, SMITHA9537, inoculum 10^-4, + 50% serum, read-out: MIC): 2 µg/mL | MIC (S. aureus Smith A9537; Staphylococcus aureus, SMITHA9537, inoculum 10^-4, nutrient broth, read-out: MIC): 0.27 µg/mL (≈ 0.435 µM) | MIC (S. aureus Smith A9537; inoculum 10^-4, nutrient broth): 0.25 µg/mL (≈ 0.403 µM) | MIC (Sal. enteritidis A9531): 0.25 µg/mL (≈ 0.403 µM) | MIC (Ser. marcescens A20019; Serratia marcescens, A20019, inoculum 10^-4): > 125 µg/mL | MIC (Ser. marcescens A20019; inoculum 10^-4): 125 µg/mL (≈ 201 µM) | Blood Level ([1]; Table II, oral 100 mg./kg., 0.5 hr, Tween-carboxymethylcellulose, 8 mice, 30 min): 54600 ng/mL | Blood Level ([1]; Table II, oral 100 mg./kg., 1 hr, Tween-carboxymethylcellulose, 8 mice, 60 min): 53500 ng/mL | Blood Level ([1]; Table II, oral 100 mg./kg., 2 hr, Tween-carboxymethylcellulose, 8 mice, 120 min): 27600 ng/mL | Blood Level ([1]; Table II, oral 100 mg./kg., 3.5 hr, Tween-carboxymethylcellulose, 8 mice, 210 min): 8200 ng/mL | concentration at 0.5 h ([1]; Example 2, PO 100 mg./kg., 0.5 hr, Tween-CMC, 16 or 32 mice, read-out: Blood Levels): 49800 ng/mL | concentration at 1 h ([1]; Example 2, PO 100 mg./kg., 1 hr, Tween-CMC, 16 or 32 mice, read-out: Blood Levels): 45100 ng/mL | concentration at 2 h ([1]; Example 2, PO 100 mg./kg., 2 hr, Tween-CMC, 16 or 32 mice, read-out: Blood Levels): 24000 ng/mL | concentration at 3.5 h ([1]; Example 2, PO 100 mg./kg., 3.5 hr, Tween-CMC, 16 or 32 mice, read-out: Blood Levels): 9300 ng/mL | concentration at 0.5 h ([1]; Table II, oral 100 mg./kg., 0.5 hr, Tween-carboxymethylcellulose, 8 mice, read-out: Blood Level): 45000 ng/mL | concentration at 1 h ([1]; Table II, oral 100 mg./kg., 1 hr, Tween-carboxymethylcellulose, 8 mice, read-out: Blood Level): 36600 ng/mL | concentration at 2 h ([1]; Table II, oral 100 mg./kg., 2 hr, Tween-carboxymethylcellulose, 8 mice, read-out: Blood Level): 20400 ng/mL | concentration at 3.5 h ([1]; Table II, oral 100 mg./kg., 3.5 hr, Tween-carboxymethylcellulose, 8 mice, read-out: Blood Level): 10400 ng/mL | Mouse blood levels, oral, compared with BL-S640 propylene glycol adduct ([1]; oral, in words): approximately equal | Mouse blood levels, intramuscular, compared with BL-S640 propylene glycol adduct ([2]; intramuscular, in words): approximately equal | concentration at 0.25 h [2, 7]: 15400 ng/mL | concentration at 0.5 h [2, 7]: 15100 ng/mL | concentration at 1 h [2, 7]: 11800 ng/mL | concentration at 1.5 h [2, 7]: 8200 ng/mL | concentration at 0.25 h [2, 8]: 16100 ng/mL | concentration at 0.5 h [2, 8]: 14800 ng/mL | concentration at 1 h [2, 8]: 11900 ng/mL | concentration at 1.5 h [2, 8]: 8000 ng/mL | dose excreted at 6 h ([3]; 10 mg/kg, IM 10 mg./kg.): 30.1% | dose excreted at 24 h ([3]; 10 mg/kg, IM 10 mg./kg., 0-24 hr): 31.8% | dose excreted at 24 h ([3]; 10 mg/kg, IM 10 mg./kg., 6-24 hr): 1.7% | dose excreted at 6 h ([3]; 50 mg/kg, IM 50 mg./kg.): 39.6% | dose excreted at 24 h ([3]; 50 mg/kg, IM 50 mg./kg., 0-24 hr): 42.2% | dose excreted at 24 h ([3]; 50 mg/kg, IM 50 mg./kg., 6-24 hr): 2.6% | Hydrolysis to the parent compound (BL-S640) [4]: complete hydrolysis | ED50 (P. mirabilis A9707): 1.8 mg/kg | ED50 (P. mirabilis A9900 [5]): 6.3 mg/kg | ED50 (P. mirabilis A9900 [6]): 1.6 mg/kg | free BL-S640 by liquid chromatography (1 mg./ml. in pH 7 phosphate buffer, 0 time): 85% | Form in solution by paper strip and liquid chromatography (0.2 and 1.0 mg./ml. in water): exists as free BL-S640
